# Experimental data: patent US10172910B2, “Method of preventing or reducing the incidence of acute urinary retention” (Nymox Corporation, priority 2016, dated 2019)
# Marks after values point to notes of the source that are not given here. No end group written: not given here.
# Tests used:
# Format in all cases: in vivo, human
# Patients with BPH [1] = assay: Example One: incidence of acute urinary retention after intraprostatic injection, double-blind, BPH patients; details: patients with BPH who received intraprostatic SEQ ID NO: 66 2.5 mg at least once (initial or subsequent treatment); after 2 years; followed 1 to 6 years; p < .05 vs control
# Source text: Patients with BPH were given an intraprostatic injection of either a) SEQ ID NO. 66 (Ile-Asp-Gln-Gln-Val-Leu-Ser-Arg-Ile-Lys-Leu-Glu-Ile-Lys-Arg-Cys-Leu) in phosphate buffered saline pH 7.2 (“PBS”) or b) PBS alone, under double-blind conditions by a urologist in an office setting under ultrasound guidance. Patients were followed for 1 to 6 years with regular physical examinations, laboratory tests, and evaluations of symptoms. Both groups of subjects were subsequently given either 1) no further treatment; 2) conventional oral medications such as alpha blockers or 5-alpha reductase inhibitors; 3) an intraprostatic injection of SEQ ID NO. 66 2.5 mg or 4) more than one of the preceding. The overall incidence of acute urinary retention in all patients who received intraprostatic SEQ ID NO. […] 66 under similar conditions.
# Patients with BPH [2] = assay: Example Two: acute urinary retention after vehicle injection followed by oral medications or SEQ ID NO. 66; details: PBS vehicle injection followed by intraprostatic injection of SEQ ID NO: 66; followed 1 to 6 years
# Source text: Patients with BPH were given an intraprostatic injection of PBS pH 7.2 vehicle alone, under double-blind conditions by a urologist in an office setting under ultrasound guidance. Patients were followed for 1 to 6 years with regular physical examinations, laboratory tests, and evaluations of symptoms, and treatments. […] 66 (Ile-Asp-Gln-Gln-Val-Leu-Ser-Arg-Ile-Lys-Leu-Glu-Ile-Lys-Arg-Cys-Leu).
# Patients with BPH [3] = assay: Example 4: acute urinary retention within 24 months, SEQ ID NO. 66 followed by oral medications or second injection vs vehicle
# Experimental: Patients with BPH were given an intraprostatic injection under double-blind conditions by a urologist in an office setting under ultrasound guidance of either a) SEQ ID NO. 66 (Ile-Asp-Gln-Gln-Val-Leu-Ser-Arg-Ile-Lys-Leu-Glu-Ile-Lys-Arg-Cys-Leu), in phosphate buffered saline pH 7.2 (“PBS”); or b) SEQ ID NO. 66 in phosphate buffered saline pH 7.2 followed by a second injection of SEQ ID NO. 66 2.5 mg one month to 2 years later; or c) PBS vehicle alone followed by conventional oral BPH medications used to treat BPH including alpha blockers such as tamsulosin, terazosin, doxazosin, or 5-alpha reductase inhibitors such as finasteride, dutasteride, or phosphodiesterase type 5 inhibitors (PDE5 inhibitors) such as tadalafil. Patients were followed for 2 years with regular physical examinations, laboratory tests, and evaluations of symptoms. […] 66 followed by conventional medication or by another injection of SEQ ID NO. 66 there were >75% fewer instances of acute urinary retention compared to subjects who were administered only a control injection of vehicle alone.
# Patients with BPH [4] = assay: Example 5: acute urinary retention, follow-up up to 6 years, SEQ ID NO. 66 followed by oral medications or second injection vs vehicle
# Experimental: Patients with BPH were administered an intraprostatic injection under double-blind conditions by a urologist in an office setting under ultrasound guidance of either a) SEQ ID NO. 66 (Ile-Asp-Gln-Gln-Val-Leu-Ser-Arg-Ile-Lys-Leu-Glu-Ile-Lys-Arg-Cys-Leu), in phosphate buffered saline pH 7.2 (“PBS”), followed by conventional oral BPH medications used to treat BPH including alpha blockers such as tamsulosin, terazosin, doxazosin, or 5-alpha reductase inhibitors such as finasteride, dutasteride, or phosphodiesterase type 5 inhibitors (PDE5 inhibitors) such as tadalafil. Patients were followed for up to 6 years with regular physical examinations, laboratory tests, and evaluations of symptoms; b) SEQ ID NO. 66 in phosphate buffered saline pH 7.2 followed by a second injection of SEQ ID NO. 66 2.5 mg one month to 2 years later; or c) PBS vehicle alone. […] 66 followed by conventional medication or by another injection of SEQ ID NO.
# Patients with BPH [5] = assay: Example 3: acute urinary retention after vehicle or SEQ ID NO. 66 followed by oral BPH medications; details: SEQ ID NO: 66 2.5 mg intraprostatic followed by oral medications; followed 1 to 6 years; p < .02
# Experimental: In this example, patients with BPH were given an intraprostatic injection of PBS pH 7.2 vehicle alone or an injection of SEQ ID NO. 66 (Ile-Asp-Gln-Gln-Val-Leu-Ser-Arg-Ile-Lys-Leu-Glu-Ile-Lys-Arg-Cys-Leu), 2.5 mg in PBS, under double-blind conditions by a urologist in an office setting under ultrasound guidance. Patients were followed for 1 to 6 years with regular physical examinations, laboratory tests, and evaluations of symptoms, and treatments. […] 66 and who subsequently received conventional oral medications used to treat BPH such as the classes of approved medications listed above.
sequence,measurement,setting,value
IDQQVLSRIKLEIKRCL [SEQ ID NO: 66],Incidence of acute urinary retention,Patients with BPH [1],1.4%*
same,Incidence of acute urinary retention,Patients with BPH [2],2.1%
same,fewer instances of acute urinary retention compared to vehicle alone,"Patients with BPH [3]; SEQ ID NO. 66 followed by conventional medication or another injection of SEQ ID NO. 66, 2 years",> 75%
same,Incidence of acute urinary retention (<24 months),"Patients with BPH [3]; SEQ ID NO: 66 intraprostatic followed by oral medications or another injection of SEQ ID NO: 66, followed 2 years, p < .03",0.76%*
same,fewer instances of acute urinary retention compared to vehicle alone,"Patients with BPH [4]; SEQ ID NO. 66 followed by conventional medication or another injection of SEQ ID NO. 66, up to 6 years",> 75%
same,Incidence of acute urinary retention,"Patients with BPH [4]; SEQ ID NO: 66 intraprostatic followed by oral medications or another injection of SEQ ID NO: 66, followed up to 6 years, p < .04",2%*
same,Incidence of acute urinary retention,Patients with BPH [5],0%*
